These results are taken from patent US20110275707A1, “SUBSTITUTED AFPO (6-ARYL-4H-FURO[3,2-C]PYRAN-4-ONE) DERIVATIVES AS ANTI-CANCER AGENTS” (priority 2008, published 2011).

Where only a bound is given, the exact number is not on record here.

The first data set concerns SK-BR-3 (HER2+) human tumor cell line. The data set can be described thus: Cell growth inhibition assay (SRB), SK-BR-3. Particulars: SK-BR-3, compared with 1. Type of data set: cell-based. As for the experimental part:
Cell Growth Inhibition Assay. All stock cultures are grown in T-25 flasks. Freshly trypsinized cell suspensions were seeded in 96-well microliter plates with compounds added from DMSO-diluted stock. The plates were incubated for an additional 72 h after attachment and drug addition, and the assay was terminated by 10% TCA. Then, 0.4% SRB dye in 1% HOAc was added to stain the cells for 10 minutes. Unbound dye was removed by repeated washing with 1% HOAc and the plates were air dried. Bound stain was subsequently solved with 10 mM trizma base, and the absorbance read at 515 nm. Growth inhibition of 50% (GI50) is calculated as the drug concentration, which caused a 50% reduction in the net protein increase in control cells during the drug incubation. The mean ED50 is the concentration of agent that reduces cell growth by 50% under the experimental conditions and is the average from at least two independent determinations. Variation between replicates was no more than 5% of the mean. The following human tumor cell lines were used in the assay: A549 (non small cell lung cancer), ZR-75-1 (estrogen receptor positive breast cancer), MDA MB-231 (estrogen receptor negative breast cancer), SKBR-3 (estrogen receptor negative, HER-2 over-expressing breast cancer), KB (nasopharyngeal carcinoma), KB-VIN (vincristine-resistant KB subline). […]
As for `COc1cc(OC)cc(-c2cc3occ(C)c3c(=O)o2)c1` [Compound 25, 6-(3,5-Dimethoxyphenyl)-3-methyl-4H-furo[3,2-c]pyran-4-one], the “potency against SK-BR-3 relative to 1” value is recorded as “approximately threefold”.

System in another data set: not given
Test: not given
Settings: not given
`Cc1coc2cc(-c3cccc(O)c3)oc(=O)c12` [Compound 13, 6-(3-Hydroxyphenyl)-3-methyl-4H-furo[3,2-c]pyran-4-one] had a melting point of 225 to 227 °C.
On the same count and under the same terms, the figure for `COc1ccc(-c2cc3occ(C)c3c(=O)o2)cc1` [Compound 17, 6-(4-Methoxyphenyl)-3-methyl-4H-furo[3,2-c]pyran-4-one] is 146 to 148 °C.
Still for that read-out and setting: the figure for `COc1cc(-c2cc3occ(C)c3c(=O)o2)cc(OC)c1OC` [Compound 27, 3-Methyl-6-(3,4,5-trimethoxyphenyl)-4H-furo[3,2-c]pyran-4-one] is 201 to 203 °C.
The same measure, in the same setting: the figure for `Cc1coc2cc(-c3ccc(O)c(O)c3)oc(=O)c12` [Compound 23, 6-(3,4-Dihydroxyphenyl)-3-methyl-4H-furo[3,2-c]pyran-4-one] is 259 to 261 °C.
Compound `Cc1ccc(-c2cc3occ(C)c3c(=O)o2)cc1C` [Compound 21, 6-(3,4-Dimethylphenyl)-3-methyl-4H-furo[3,2-c]pyran-4-one] returned a melting point of 182 to 184 °C.
Still for that read-out and setting: then `Cc1coc2cc(-c3cccc(O)c3O)oc(=O)c12` [Compound 20, 6-(2,3-Dihydroxyphenyl)-3-methyl-4H-furo[3,2-c]pyran-4-one], with 239 to 241 °C; and `COc1cccc(-c2cc3occ(C)c3c(=O)o2)c1OC` [Compound 19, 6-(2,3-Dimethoxyphenyl)-3-methyl-4H-furo[3,2-c]pyran-4-one], with 111 to 113 °C.
On the same count and under the same terms, then `Cc1coc2cc(-c3cc(O)cc(O)c3)oc(=O)c12` [Compound 26, 6-(3,5-Dihydroxyphenyl)-3-methyl-4H-furo[3,2-c]pyran-4-one], with greater than 300 °C.
On the same count and under the same terms, the figure for `Cc1cccc(-c2cc3occ(C)c3c(=O)o2)c1` [Compound 10, 3-Methyl-6-m-tolyl-4H-furo[3,2-c]pyran-4-one] is 135 to 137 °C; for `Cc1coc2cc(-c3ccc(F)cc3)oc(=O)c12` [Compound 15, 6-(4-Fluorophenyl)-3-methyl-4H-furo[3,2-c]pyran-4-one] it is 175 to 177 °C; for `COc1cccc(-c2cc3occ(C)c3c(=O)o2)c1` [Compound 11, 6-(3-Methoxyphenyl)-3-methyl-4H-furo[3,2-c]pyran-4-one] it is 119 to 121 °C.
`CCc1coc2cc(-c3cc(OC)cc(OC)c3)oc(=O)c12` [Compound 28, 6-(3,5-Dimethoxyphenyl)-3-ethyl-4H-furo[3,2-c]pyran-4-one]: the melting point is 131 to 133 °C.
On the same count and under the same terms, then `COc1cc(OC)cc(-c2cc3occ(C)c3c(=S)o2)c1` [Compound 30, 6-(3,5-Dimethoxyphenyl)-3-methyl-4H-furo[3,2-c]pyran-4-thione], with 147 to 149 °C; and `Cc1cc(C)cc(-c2cc3occ(C)c3c(=O)o2)c1` [Compound 24, 6-(3,5-Dimethylphenyl)-3-methyl-4H-furo[3,2-c]pyran-4-one], with 171 to 173 °C.
The same measure, in the same setting: the figure for `COc1ccc(-c2cc3occ(C)c3c(=O)o2)cc1OC` [Compound 22, 6-(3,4-Dimethoxyphenyl)-3-methyl-4H-furo[3,2-c]pyran-4-one] is 154 to 156 °C; for `COc1cc(OC)cc(-c2cc3oc(C)c(C)c3c(=O)o2)c1` [Compound 29, 6-(3,5-Dimethoxyphenyl)-2,3-dimethyl-4H-furo[3,2-c]pyran-4-one] it is 163 to 165 °C.
Same read-out and setting: the figure for `COc1cc(OC)cc(-c2cc3occ(C)c3c(=O)o2)c1` [Compound 25, 6-(3,5-Dimethoxyphenyl)-3-methyl-4H-furo[3,2-c]pyran-4-one] is 153 to 155 °C.
Compound `Cc1coc2cc(-c3ccc(O)cc3)oc(=O)c12` [Compound 18, 6-(4-Hydroxyphenyl)-3-methyl-4H-furo[3,2-c]pyran-4-one] had a melting point of 258 to 260 °C.
Same read-out and setting: then `CCOc1cccc(-c2cc3occ(C)c3c(=O)o2)c1` [Compound 12, 6-(3-Ethoxyphenyl)-3-methyl-4H-furo[3,2-c]pyran-4-one], with 128 to 130 °C; and `Cc1coc2cc(-c3cccc(F)c3)oc(=O)c12` [Compound 14, 6-(3-Fluorophenyl)-3-methyl-4H-furo[3,2-c]pyran-4-one], with 158 to 160 °C; and `Cc1ccc(-c2cc3occ(C)c3c(=O)o2)cc1` [Compound 16, 3-Methyl-6-p-tolyl-4H-furo[3,2-c]pyran-4-one], with 153 to 155 °C.
The same measure, in the same setting: then `Cc1coc2cc(-c3ccccc3)oc(=O)c12` [Compound 9, 3-Methyl-6-phenyl-4H-furo[3,2-c]pyran-4-one], with 105 to 107 °C.

The melting point is the temperature of the solid-liquid transition.
